Test results: PubChem BioAssay (NCI)
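Cultured in 96-well plates, cells were exposed to test compound for 48 hours across five concentrations. TGI marks complete inhibition of growth.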

Legend:
Experiment in all cases: inhibition of tumour cell growth, NCI panel, 48 h
CCRF-CEM leukemia = system: CCRF-CEM leukemia
HOP-92 NSCLC = system: HOP-92 NSCLC
KM12 colon = system: KM12 colon
LOX IMVI melanoma = system: LOX IMVI melanoma
MDA-MB-231 breast = system: MDA-MB-231 breast
MDA-N = system: MDA-N
OVCAR-4 ovarian = system: OVCAR-4 ovarian
OVCAR-8 ovarian = system: OVCAR-8 ovarian
PC-3 prostate = system: PC-3 prostate
RPMI-8226 leukemia = system: RPMI-8226 leukemia
SK-MEL-2 melanoma = system: SK-MEL-2 melanoma

Row | SMILES | TGI (CCRF-CEM leukemia) [µM] | TGI (HOP-92 NSCLC) [µM] | TGI (KM12 colon) [µM] | TGI (LOX IMVI melanoma) [µM] | TGI (MDA-MB-231 breast) [µM] | TGI (MDA-N) [µM] | TGI (OVCAR-4 ovarian) [µM] | TGI (OVCAR-8 ovarian) [µM] | TGI (PC-3 prostate) [µM] | TGI (RPMI-8226 leukemia) [µM] | TGI (SK-MEL-2 melanoma) [µM]
1 | COc1ccc2c(c1)C(N)=C(Cc1ccncc1)C2=O | > 100 | > 100 | > 100 | > 100 | > 100 | > 100 | > 100 | > 100 | > 100 | > 100 | > 100
2 | COC1(CC[C@H](C)COC2OC(CO)C(O)C(O)C2O)O[C@H]2C[C@H]3[C@@H]4CC=C5C[C@@H](OC6OC(CO)C(O)C(OC7OC(CO)C(O)C(O)C7O)C6OC6OC(C)C(O)C(O)C6O)CC[C@]5(C)[C@H]4CC[C@]3(C)[C@H]2[C@@H]1C (stereo partly drawn) | > 32.9 | 10.1 | 3.91 | 6.06 | 15.5 | 27 | 14.9 | 9.47 | 16.6 | 23.6 | 25.2
3 | Cn1c2c3c(F)c(F)ccc3nc-2cc2ccccc21 | 28 | 49.1 | 4.76 | 5.23 | 20.8 | 15 | 22.9 | 16.3 | 19.4 | 11.5 | 14.1
4 | CN(C)c1ccc(C2ON=C(c3ccccc3)N2C23CC4CC(CC(C4)C2)C3)cc1 (stereo not drawn) | > 10 | > 10 | > 10 | > 10 | > 10 | > 10 | > 10 | > 10 | > 10 | > 10 | > 10
5 | O=C(CN(c1ccc(S(=O)(=O)O)cc1)c1ccc(S(=O)(=O)O)cc1)Nn1cnc2ccc(S(=O)(=O)N(c3ccc(S(=O)(=O)O)cc3)c3ccc(S(=O)(=O)O)cc3)cc2c1=O | > 100 | > 100 | > 100 | > 100 | > 100 | > 100 | > 100 | > 100 | > 100 | > 100 | > 100
6 | CCC(=O)NCCc1c2c3c(ccnc3c3ncsc13)-c1ccccc1N2 | > 100 | > 100 | > 100 | > 82.6 | > 68.4 | > 100 | > 100 | > 71.1 | > 100 | 19.8 | > 100
7 | CC1OC(O[C@H]2CC[C@]3(C=O)[C@H]4CC[C@]5(C)[C@H](C6=CC(=O)OC6)CC[C@]5(O)[C@@H]4C=C[C@]3(O)C2)CC(O)C1O (stereo partly drawn) | 0.82 | 2.62 | 2.76 | 0.652 | 2.57 | 0.807 | 0.838 | 0.754 | 0.657 | 2.37 | 1.14
8 | CCOC(=O)N1[C@@H]2CCC[C@@H]2C(=O)[C@@H]2CCC[C@@H]21 | > 100 | > 100 | > 100 | > 100 | > 100 | > 100 | > 100 | > 100 | > 100 | > 100 | > 100
9 | O=c1[nH]c(=O)n(C/C=C/CBr)nc1Br | 30.7 | 26.5 | 28.8 | 5.78 | 14.1 | 27.5 | 22.9 | 29.9 | 24.6 | 23.3 | 26
10 | O=C1C(Cl)C(c2cc3cc(Br)ccc3nc2Cl)N1c1c(Cl)cccc1Cl (stereo not drawn) | 20 | > 25 | > 25 | 7.96 | > 25 | > 25 | 11.4 | > 25 | > 25 | 23 | > 25
11 | Cc1cc(C)n(CN(Cn2nc(C)cc2C)c2ccccc2)n1 | 83.9 | > 100 | 42.6 | 23.8 | > 100 | 27.6 | 52 | 56 | > 100 | 47.6 | 44.6
12 | Cc1ccc(-c2cc(-c3c(C)nn(C)c(=O)c3N)[nH]n2)cc1 | > 100 | > 100 | > 100 | > 100 | > 100 | > 100 | > 100 | > 100 | > 100 | > 100 | > 100
13 | c1ccc(C2=Nc3cccc4cccc(c34)N2)cc1 | 28.7 | 52.7 | > 85.1 | 60 | 54.7 | > 100 | 42.6 | > 87 | 68 | > 84.6 | > 93.1
14 | CN(C)c1ccc(C(=NN)c2ccc(N(C)C)cc2)cc1 | 3.41 | > 54.4 | > 100 | > 100 | 10 | 24.4 | > 100 | > 100 | > 23.5 | 10.3 | 0.445
15 | Cc1c(-c2ccccc2)c(C#N)c2nnn(-c3cccc(Cl)c3)c(=O)n12 | > 100 | > 100 | > 100 | > 100 | 72.9 | > 100 | > 100 | > 100 | 75.9 | > 100 | 67.2
16 | CCN(CC)C(=S)SS(=O)(=O)c1ccccc1[N+](=O)[O-] | > 100 | > 54.8 | > 50 | > 57 | 37.3 | > 66.6 | > 83.3 | > 56.9 | > 100 | 40.9 | > 100
17 | Oc1cc(CN2COc3ccccc32)c(O)cc1CNC1CCCCC1 | > 100 | 75.4 | > 100 | 31.6 | 41.8 | 32.2 | 52.2 | 57.5 | 42 | 64.5 | 50
18 | CC(NC(NC(C)C12CC3CC(CC(C3)C1)C2)=C(C(Cl)=C(Cl)Cl)[N+](=O)[O-])C12CC3CC(CC(C3)C1)C2 (stereo not drawn) | 4.64 | 17.3 | > 100 | 21.5 | 16 | > 100 | > 100 | 7.41 | > 65.2 | > 69.5 | > 67.6
